From patent US20100179122A1 (priority 2005, published 2010)
Where two headings read alike, the source gives them in different places.

Legend:
[1] = target: T1, mutant HIV reverse transcriptase (K103N mutation) (Human immunodeficiency virus type 1 group M subtype B, UniProt P04585, K690N); assay: Analogous RT inhibition assay, K103N mutant; type: biochemical
T1 construct: mutations that occur in the reverse transcriptase segment of the pol gene; made in house
Experimental: (§1) 100 μL reaction mixtures were initiated with a combination of primer-template substrate (10 nM final concentration) and dNTPs (0.6 μM dNTPs, 0.75 μM [^3H]-dGTP). The heterodimeric nucleic acid substrate was generated by annealing the DNA primer pD500 (described in Shaw-Reid et al., J. Biol. Chem., 278: 2777-2780; obtained from Integrated DNA Technologies) to t500, a 500 nucleotide RNA template created by in vitro transcription (see Shaw-Reid et al., J. Biol. Chem., 278: 2777-2780). After 1 hour incubation at 37° C., reactions were quenched by 10 μl, streptavidin scintillation proximity assay beads (10 mg/mL, from Amersham Biosciences) in 0.5 M EDTA, pH 8. Microtiter plates were incubated an additional 10 minutes at 37° C. prior to quantification via Topcount (Packard).
(§2) Analogous assays were conducted substituting mutant HIV strains to determine the […] inhibition of compounds of the present invention against mutant HIV reverse transcriptase. In one strain the reverse transcriptase has the Y181C mutation and in the other strain the reverse transcriptase has the K103N mutation. The mutations were generated with the […] site-directed mutagenesis kit (Stratagene). […] The compounds set forth in the other Examples were not tested in the Y181C assay. […] The compounds set forth in the other Examples were not tested in the K103N assay.

[2] = system: acute HIV infection of T-lymphoid cells; assay: Assay for inhibition of HIV replication (spread assay); type: cell-based; conditions: Human immunodeficiency virus 1; inhibition of acute HIV infection of T-lymphoid cells; read-out: IC95, spread assay
Experimental: An assay for the inhibition of acute HIV infection of T-lymphoid cells (alternatively referred to herein as the “spread assay”) was conducted in accordance with Vacca, J. P. et al., Proc. Natl. Acad. Sci. USA 1994, 91: 4096. […] The compounds set forth in the other Examples were not tested in the spread assay.

[3] = target: T2, mutant HIV reverse transcriptase (Y181C mutation) (Human immunodeficiency virus type 1 group M subtype B, UniProt P04585, Y768C); assay: Analogous RT inhibition assay, Y181C mutant; type: biochemical
T2 construct: mutations that occur in the reverse transcriptase segment of the pol gene; made in house
Experimental: as §1, §2

[4] = reverse transcriptase with K103N mutation, tested up to 20 micromolar, read-out: IC50, K103N mutant assay
[5] = reverse transcriptase with Y181C mutation, tested up to 20 micromolar, read-out: IC50, Y181C mutant assay

Structure (SMILES)	IC50 [1] [nM]	IC95 [2] [nM]	IC50 [3] [nM]	IC50 [1, 4] [nM]	IC50 [3, 5] [nM]
O=C(Nc1ccccc1F)Nc1[nH]c2ccc(Cl)cc2c1S(=O)(=O)c1ccccc1 [Example 2, N-[5-chloro-3-(phenylsulfonyl)-1H-indol-2-yl]-N-(2-fluorophenyl)urea]	< 1000	< 1000	–	–	–
O=C(CN1CCC(c2ccncc2)CC1)Nc1[nH]c2ccc(Cl)cc2c1S(=O)(=O)c1ccccc1 [Example 37, N-[5-chloro-3-(phenylsulfonyl)-1H-indol-2-yl]-2-(4-pyridin-4-ylpiperidin-1-yl)acetamide]	> 20000	–	> 20000	–	–
O=C(CNCc1cscn1)Nc1[nH]c2ccc(Cl)cc2c1S(=O)(=O)c1ccccc1 [Example 38, N^1-[5-chloro-3-(phenylsulfonyl)-1H-indol-2-yl]-N^2-(1,3-thiazol-4-ylmethyl)glycinamide]	< 1000	–	< 1000	–	–
O=C(NCc1cccc(F)c1)Nc1[nH]c2ccc(Br)cc2c1S(=O)(=O)N1CCCC1 [Example 70]	–	–	–	< 1000	–
O=C(Nc1ccccc1)Nc1[nH]c2ccc(Br)cc2c1S(=O)(=O)N1CCCC1 [Example 73, N-[5-bromo-3-(pyrrolidin-1-ylsulfonyl)-1H-indo1-2-yl]-N′-phenylurea]	–	< 1000	–	< 1000	–
CC(C)NC(=O)Nc1[nH]c2ccc(Br)cc2c1S(=O)(=O)N1CCCC1 [Example 74, N-[5-bromo-3-(pyrrolidin-1-ylsulfonyl)-1H-indol-2-yl]-N′-isopropylurea]	–	–	–	< 1000	–
O=C(Nc1[nH]c2ccc(Br)cc2c1S(=O)(=O)N1CCCC1)NC1CCCC1 [Example 78, N-[5-bromo-3-(pyrrolidin-1-ylsulfonyl)-1H-indol-2-yl]-N′-cyclopentylurea]	–	–	> 20000	< 1000	–
O=C(NCc1ccccc1O)Nc1[nH]c2ccc(Br)cc2c1S(=O)(=O)N1CCCC1 [Example 79, N-[5-bromo-3-(pyrrolidin-1-ylsulfonyl)-1H-indol-2-yl]-N′-(2-hydroxybenzyl)urea]	–	–	> 20000	< 1000	–
O=C(NCc1ccccn1)Nc1[nH]c2ccc(Br)cc2c1S(=O)(=O)N1CCCC1 [Example 80, N-[5-bromo-3-(pyrrolidin-1-ylsulfonyl)-1H-indol-2-yl]-N′-(pyridin-2-ylmethyl)urea]	–	–	1000 to 20000	< 1000	–
O=C(NCc1cccnc1)Nc1[nH]c2ccc(Br)cc2c1S(=O)(=O)N1CCCC1 [Example 81, N-[5-bromo-3-(pyrrolidin-1-ylsulfonyl)-1H-indol-2-yl]-N′-(pyridin-3-ylmethyl)urea]	–	–	1000 to 20000	< 1000	–
O=C(NCc1cncs1)Nc1[nH]c2ccc(Br)cc2c1S(=O)(=O)N1CCCC1 [Example 83, N-[5-bromo-3-(pyrrolidin-1-ylsulfonyl)-1H-indol-2-yl]-N′-(1,3-thiazol-5-ylmethyl)urea]	–	–	1000 to 20000	< 1000	–
O=C(Nc1[nH]c2ccc(Br)cc2c1S(=O)(=O)N1CCCC1)N1CCCC1 [Example 84, N-[5-bromo-3-(pyrrolidin-1-ylsulfonyl)-1H-indol-2-yl]pyrrolidine-1-carboxamide]	–	–	–	< 1000	> 20000
O=C(NCCc1ccccc1)Nc1[nH]c2ccc(Br)cc2c1S(=O)(=O)N1CCCC1 [Example 85, N-[5-bromo-3-(pyrrolidin-1-ylsulfonyl)-1H-indol-2-yl]-N′-(2-phenylethyl)urea]	–	–	–	< 1000	> 20000
NC(=O)C1CCCN(C(=O)Nc2[nH]c3ccc(Br)cc3c2S(=O)(=O)N2CCCC2)C1 (stereo not shown) [Example 87, N^1-[5-bromo-3-(pyrrolidin-1-ylsulfonyl)-1H-indol-2-yl]piperidine-1,3-dicarboxamide]	–	–	–	< 1000	> 20000
O=C(NCCc1ccccn1)Nc1[nH]c2ccc(Br)cc2c1S(=O)(=O)N1CCCC1 [Example 88, N-[5-bromo-3-(pyrrolidin-1-ylsulfonyl)-1H-indol-2-yl]-N′-(2-pyridin-2-ylethyl)urea]	1000 to 20000	–	–	–	> 20000
